Assay results published in US12589107B2, “Composition containing nicotinamide mononucleotide and mogroside, and application thereof” (Beijing Hebabiz Biotechnology Co., Inc., priority 2019, dated 2026).

Assays:
[1] = system: alloxan-damaged RINm5f cells; test: MTT cell viability assay, protection against alloxan-induced islet β-cell damage (with Calcusyn combination index); assay type: cell-based, rat; conditions: for combination index CI value with alloxan: agent 0.5, 1, 5, 10 mM with alloxan 15 mM, Calcusyn, >1.0 = antagonistic (cytoprotective); for cell survival rate of alloxan-damaged pancreatic β-cells, single agent: alloxan 15 mM, agent 0.5, 1, 5, 10 mM, pretreated 1 h, 24 h, significant vs AXN group at 5 mM (P<0.05) and 10 mM (P<0.01)
Method: RINm5F cells were cultured to the logarithmic growth phase, inoculated in 96-well culture plates at a cell density of 5×10^4/ml, cultured for 24 hours, and then drugs were added. The experiment was divided into a negative control group, an alloxan damage group (AXN group) and a protection group. Both the AXN group and the protection group were added with alloxan at a final concentration of 15 mM, and the protection group was added with different concentrations of GX999 and GX008A, pretreated for 1h. The experiment set up 4 duplicate wells and the experiment was repeated three times.
RINm5F cells were cultured to the logarithmic growth phase, inoculated in 96-well culture plates at a cell density of 5×10^4/ml, cultured for 24 hours, and then drugs were added. The experiment was divided into a negative control group, an alloxan damage group (AXN group) and a protection group. Both the AXN group and the protection group were added with alloxan at a final concentration of 15 mM, and the protection group was added with different concentrations of GX999 and GX008A, pretreated for 1h. The experiment set up 4 duplicate wells and they were placed in a carbon dioxide incubator for regular culture for 24 hours. MTT 20 ul (5 mg/mL) was added to each well and incubated for 4 hours. Then the culture medium was discarded, 150 ul DMSO was added to each well and shaken for 10 minutes, and the OD value of the optical density was detected at 490 nm with a microplate reader.
According to the inhibition rates of different concentrations of drugs alone and in combination, the Calcusyn software was used to analyze and process data such as the inhibition rates of GX999 and GX008A alone at different concentrations and the inhibition rates in combination at corresponding concentrations to obtain the combination index (CI) value. According to the definition of combination index, the synergistic effect of drugs was judged, and the synergistic effect is indicated by less than 1.0, and the antagonistic effect is indicated by greater than 1.0.
The experiment set up a negative control group and a damage group with different concentrations of alloxan (concentrations of 4 mM, 7 mM, 10 mM, 15 mM, 20 mM), after 24 hours of exposure, then 4 duplicate wells were set up, and the MTT method was used to detect the cell survival rate. […] Compared with the blank control group, the P value was less than 0.01, and the difference was statistically significant.

[2] = system: 3T3L1 preadipocytes; test: MTT cell viability assay, proliferation of 3T3L1 preadipocytes (with Calcusyn combination index); assay type: cell-based; conditions: 48 hours; for survival rate of 3T3L1 cells / cell proliferation, single agent: GX999 10-60 mM, GX008A 5-200 mM, P<0.01 vs blank control
Method: 3T3L1 cells were placed in DMEM high-glucose medium containing 10% calf serum and cultured at 37° C. and 5% CO2. When the cells reached 90% confluence, they were digested with 0.25% trypsin, passaged, and inoculated in a 96-well cell culture plate.
The logarithmic growth phase cells were taken and inoculated in a 96-well plate at a density of 5×10^3 cells/mL, with 4 replicate wells in each group. After the cells grew to about 40%-50% confluence, the fresh drug-containing medium was replaced with and they were divided into a GX999 alone group, a GX008A group, and a GX999+GX008A combination group. After culturing for 48h, MTT 20 ul (5 mg/mL) was added to each well and incubated for 4h. Then the culture medium was discarded, 150 ul DMSO was added to each well and shaken for 10 minutes, and the OD value of the optical density was detected at 490 nm with a microplate reader, and the cell survival rate was calculated according to the formula. Analysis of drug synergy:
Combination method: 10 mM GX999 in combination with GX008A (0, 5, 10, 30, 50 mM) group. According to the inhibition rates of different concentrations of drugs alone and in combination, the Calcusyn software was used to analyze and process data such as the inhibition rates of GX999 and GX008A alone at different concentrations and the inhibition rates in combination at corresponding concentrations to obtain the combination index (CI) value. According to the definition of combination index, the synergistic effect of drugs was judged, and the synergistic effect is indicated by less than 1.0, and the antagonistic effect is indicated by greater than 1.0.

[3] = system: 3T3-L1 preadipocytes; test: Induced differentiation of 3T3-L1 preadipocytes, Oil Red O staining of lipid droplets; assay type: cell-based; conditions: 10 mM each, 8 days of induced differentiation, P<0.01
Method: 2 days after the 3T3-L1 preadipocytes grew to complete confluence, the induction of differentiation began. That is, the DMEM complete medium was discarded, and replaced with DMEM complete medium containing 5 ug/ml insulin, 0.5 mM IBMX, 1 uM dexamethasone, and after 2 days, it was replaced with DMEM complete culture medium containing 5 ug/ml insulin and cultured for 2 days. Then DMEM complete culture medium was used to continue culturing for 2 days. From the first day of differentiation, the experimental group was given a culture medium containing 10 mM GX999 or 10 mM GX008A to intervene in the whole process of cell differentiation, and the control group was added with conventional inducers.
After 8 days of induced differentiation, the cells were fixed with 4% paraformaldehyde for 30 minutes, washed 3 times with balanced salt solution (PBS), incubated with oil red O staining solution for 60 minutes, the pipetted liquid was rinsed 3 times with PBS, and observed for the formation of lipid droplets under an inverted microscope and a video was taken. Isopropanol (200 ul per well) was added, and the absorbance at A490 nm was measured with a microplate reader after 5 minutes.
Based on the results of the above-mentioned combination application experiment, the drug concentration and combination concentration were selected. […]

SMILES	cell survival rate / cell proliferation (alloxan cell damage model) ([1]; alloxan 4, 7, 10, 15, 20 mM, 24 hours, RINm5f cells, MTT)	combination index CI value with alloxan [1]	cell survival rate of alloxan-damaged pancreatic β-cells, single agent [1]	IC50 ([2]; 3T3L1 cells, MTT, read-out: IC50 (3T3L1 cell survival rate)) [mM]	survival rate of 3T3L1 cells / cell proliferation, single agent [2]	lipid droplet content in cells compared with the differentiation group [3]
O=C1NC(=O)C(=O)C(=O)N1 [alloxan, reference compound]	inhibited cell proliferation in a concentration-dependent manner					
NC(=O)c1ccc[n+]([C@@H]2O[C@H](COP(=O)([O-])O)[C@@H](O)[C@H]2O)c1 [GX999, Nicotinamide mononucleotide]		greater than 1.0	the cell survival rate could be significantly improved	51.7 ± 1.5	inhibited cell proliferation in a concentration-dependent manner	significantly reduced
C[C@H](CC[C@@H](O[C@@H]1O[C@H](CO[C@@H]2O[C@H](CO)[C@@H](O)[C@H](O)[C@H]2O)[C@@H](O)[C@H](O)[C@H]1O[C@@H]1O[C@H](CO)[C@@H](O)[C@H](O)[C@H]1O)C(C)(C)O)[C@H]1CC[C@@]2(C)[C@@H]3CC=C4[C@@H](CC[C@H](O[C@@H]5O[C@H](CO[C@@H]6O[C@H](CO)[C@@H](O)[C@H](O)[C@H]6O)[C@@H](O)[C@H](O)[C@H]5O)C4(C)C)[C@]3(C)[C@H](O)C[C@]12C [GX008A, Mogroside V]		greater than 1.0	the cell survival rate could be significantly improved		inhibited cell proliferation in a concentration-dependent manner	significantly reduced
